The source of these data is US10138232B2, “Naphthyridinedione derivatives” (NOVARTIS AG, priority 2014, dated 2018).

For the assay, the system named is CFTR-Y122X (GFP-CFTR-Y122X-Renilla construct) in Hek293 cell lines. As to the kind of experiment: CFTR-Y122X assay (dual reporter readthrough, Renilla luminescence). Format: cell-based. The note with it: Homo sapiens, compounds incubated 24 h, tested up to 100 μM; for AC50: nonsense mutation suppression in the CFTR-Y122X assay; for Emax: nonsense mutation suppression, 100% activity = 14 mM paromomycin, read-out: Amax. The source says: In particular, compounds of formula (I), (I′), (Ia), (Ia′) or (Ib) I act as nonsense mutation suppressors on frequent PTCs, e.g. on Y122X in the mRNA of the cystic fibrosis conductance regulator protein (CFTR). This can be determined in vitro, for example, using cell lines expressing GFP-CFTR-Y122X-Renilla constructs as described herein.
Activity of compounds of the present invention was examined in recombinant, dual reporter isogenic Hek293 cell lines (“CFTR-Y122X assay”). The engineered reporter constructs contained the 18 bp sequence strech corresponding to a common Y122X PTC mutation in CFTR class I mutant patients (see Sermet-Gaudelus, BMC Medicine, 2007, 5(5)). Instead of a tyrosine (Y) in position 122 of the CFTR protein a TGA stop codon interrupts the open reading frame (Y122X) of the corresponding mRNA. This TGA stop codon triplet (followed by the pyrimidine base cytosine) is permissive to aminoglycoside mediated translational readthrough which served as positive control for high throughput screening. A corresponding TAA stop codon variant and a wildtype non mutated construct was used for confirmation and counter screening. The CFTR sequence was sandwiched between an eGFP reporter, and a triple myc tag sequence fused to a full length Renilla reporter. All sequences, including an intron containing one positioned pre-eGFP (b-globin intron) were cloned in frame. The corresponding expression constructs were stably expressed in the isogenic HEK-R4 cell host (Invitrogen Incorp.) and selected by blasticidin resistance. The isogenic integration of the construct minimizes gene dose effects and improves assay reproducibility. Stably integrated single cell derived clones were selected and characterized for aminoglycoside mediated readthrough. […] Readthrough of Y122X accumulates an intracellular localized fusion protein approximately 65.5 kDa in size as controlled by western blot analysis and immunofluorescence using an anti-renilla antibody. The eGFP reporter pre-PTC mutation serves as visual control for genetic stability of the screening clones and minimizes protein degradation of small fusion protein amounts. In the assay, compound concentration was 10 μM. In miniaturized 1536 well format 2000 cells were dispensed in 4 μl/well and incubated for 24 h at 37° C., 5% CO2. 40 nl compounds were placed on the cells with control wells containing 1 ul Paramomycin and 14.4 mM final concentration. Compounds were incubated for 24 h. Renilla Glo substrate (2.5 ul) was added and plates were centrifuged and processed for luminescence measurement using various readers. Activity calculation was done using the equation: A1(%)=100*(S−NC)/(AC−NC) where AC, NC and S correspond to active controls (injection of Stimulation buffer=100% stimulation), neutral controls (buffer injection which Iloprost EC10) and screening samples (S). NC corresponds to 0% activity whereas AC is 100% activity (14 mM paromomycin). False positive artefacts were removed in confirmation and validation screening using the same assay format followed by counterscreening using the respective wildtype construct (w/o PTC mutation) cell model. Compounds were tested up to 100 μM compound concentration.

The term AC50 denotes the concentration at which the activity in the assay is half-maximal. With `O=c1c2ccccc2[nH]c2cc(C3CCC3)n(-c3ccccc3)c(=O)c12` [Example 1.1, 3-Cyclobutyl-2-phenylbenzo[b][1,6]naphthyridine-1,10(2H,5H)-dione], the activity was half-maximal at 0.6 µM (AC50) and the Emax was 219%.
In the case of `Cn1c2ccccc2c(=O)c2c(=O)n(-c3ccccc3)c(C3CCC3)cc21` [Example 1.2, 3-Cyclobutyl-5-methyl-2-phenylbenzo[b][1,6]naphthyridine-1,10(2H,5H)-dione], half-maximal activity (AC50) was put at 1 µM and the Emax came to 260%.
For the compound `CC(C)c1cc2[nH]c3ccccc3c(=O)c2c(=O)n1-c1ccccc1` [Example 1.3, 3-isopropyl-2-phenylbenzo[b][1,6]naphthyridine-1,10(2H,5H)-dione], the AC50 was 1.1 µM and the Emax is 281%.
The matching figures for `CC(C)c1cc2c(c(=O)c3ccccc3n2C)c(=O)n1-c1ccccc1` [Example 1.4, 3-isopropyl-5-methyl-2-phenylbenzo[b][1,6]naphthyridine-1,10(2H,5H)-dione]: 3.2 µM and 324%.
The corresponding values for `CC(C)c1cc2[nH]c3ccc(F)cc3c(=O)c2c(=O)n1-c1ccccc1` [Example 1.5, 8-fluoro-3-isopropyl-2-phenylbenzo[b][1,6]naphthyridine-1,10(2H,5H)-dione] are 1.8 µM and 358%.
The matching figures for `CC(C)c1cc2c(c(=O)c3cc(F)ccc3n2C)c(=O)n1-c1ccccc1` [Example 1.6, 8-fluoro-3-isopropyl-5-methyl-2-phenylbenzo[b][1,6]naphthyridine-1,10(2H,5H)-dione]: 7.7 µM and 507%.
With `CC(C)c1cc2[nH]c3ccc(Cl)cc3c(=O)c2c(=O)n1-c1ccccc1` [Example 1.7, 8-chloro-3-isopropyl-2-phenylbenzo[b][1,6]naphthyridine-1,10(2H,5H)-dione], the AC50 turned out to be 2.4 µM and the Emax turned out to be 215%.
Regarding `CC(C)c1cc2c(c(=O)c3cc(Cl)ccc3n2C)c(=O)n1-c1ccccc1` [Example 1.8, 8-chloro-3-isopropyl-5-methyl-2-phenylbenzo[b][1,6]naphthyridine-1,10(2H,5H)-dione], the AC50 was 14.8 µM and the Emax turned out to be 307%.
The corresponding values for `Cc1ccc2[nH]c3cc(C(C)C)n(-c4ccccc4)c(=O)c3c(=O)c2c1` [Example 1.9, 3-isopropyl-8-methyl-2-phenylbenzo[b][1,6]naphthyridine-1,10(2H,5H)-dione] are 1.2 µM and 249%.
On to `Cc1ccc2c(c1)c(=O)c1c(=O)n(-c3ccccc3)c(C(C)C)cc1n2C` [Example 1.10, 3-isopropyl-5,8-dimethyl-2-phenylbenzo[b][1,6]naphthyridine-1,10(2H,5H)-dione], for which the AC50 is 7.3 µM and the Emax was found to be 409%.
The corresponding values for `CC(C)c1cc2c(c(=O)c3cccc4c3n2CC4)c(=O)n1-c1ccccc1` [Example 1.11, 9-isopropyl-8-phenyl-1H-indolo[1,7-ab][1,6]naphthyridine-6,7(2H,8H)-dione] are 4 µM and 276%.
The matching figures for `CC(C)c1cc2[nH]c3sccc3c(=O)c2c(=O)n1-c1ccccc1` [Example 1.12, 7-isopropyl-6-phenylthieno[2,3-b][1,6]naphthyridine-4,5(6H,9H)-dione]: 19 µM and 248%.
`CC(C)c1cc2c(c(=O)c3ccsc3n2C)c(=O)n1-c1ccccc1` [Example 1.13, 7-isopropyl-9-methyl-6-phenylthieno[2,3-b][1,6]naphthyridine-4,5(6H,9H)-dione]: the AC50 is 8.6 µM and the Emax was determined as 445%.
In the case of `Cc1cc2c(=O)c3c(=O)n(-c4ccccc4)c(C(C)C)cc3[nH]c2s1` [Example 1.14, 7-isopropyl-2-methyl-6-phenylthieno[2,3-b][1,6]naphthyridine-4,5(6H,9H)-dione], the Emax was 35%.
In the case of `Cc1cc2c(=O)c3c(=O)n(-c4ccccc4)c(C(C)C)cc3n(C)c2s1` [Example 1.15, 7-isopropyl-2,9-dimethyl-6-phenylthieno[2,3-b][1,6]naphthyridine-4,5(6H,9H)-dione], half-maximal activity (AC50) was put at 5.5 µM and the Emax amounted to 224%.
The corresponding values for `CC(C)c1cc2[nH]c3ccsc3c(=O)c2c(=O)n1-c1ccccc1` [Example 1.16, 6-isopropyl-7-phenylthieno[3,2-b][1,6]naphthyridine-8,9(4H,7H)-dione] are 1.6 µM and 344%.
Regarding `CC(C)c1cc2c(c(=O)c3sccc3n2C)c(=O)n1-c1ccccc1` [Example 1.17, 6-isopropyl-4-methyl-7-phenylthieno[3,2-b][1,6]naphthyridine-8,9(4H,7H)-dione], the AC50 worked out at 9.2 µM and the Emax was determined as 430%.
Consider `Cc1cc2[nH]c3cc(C(C)C)n(-c4ccccc4)c(=O)c3c(=O)c2s1` [Example 1.18, 6-isopropyl-2-methyl-7-phenylthieno[3,2-b][1,6]naphthyridine-8,9(4H,7H)-dione], for which the activity was half-maximal at 3.9 µM (AC50) and the Emax stood at 240%.
On to `Cc1cc2c(s1)c(=O)c1c(=O)n(-c3ccccc3)c(C(C)C)cc1n2C` [Example 1.19, 6-isopropyl-2,4-dimethyl-7-phenylthieno[3,2-b][1,6]naphthyridine-8,9(4H,7H)-dione], for which the AC50 amounted to 12.8 µM and the Emax was determined as 253%.
Consider `Cc1csc2c(=O)c3c(=O)n(-c4ccccc4)c(C(C)C)cc3[nH]c12` [Example 1.20, 6-isopropyl-3-methyl-7-phenylthieno[3,2-b][1,6]naphthyridine-8,9(4H,7H)-dione], for which the AC50 was 2.5 µM and the Emax is 183%.
On to `Cc1csc2c(=O)c3c(=O)n(-c4ccccc4)c(C(C)C)cc3n(C)c12` [Example 1.21, 6-isopropyl-3,4-dimethyl-7-phenylthieno[3,2-b][1,6]naphthyridine-8,9(4H,7H)-dione], for which half-maximal activity (AC50) was put at 5.4 µM and the Emax is 379%.
Take `CC(C)c1cc2[nH]c3c(c(=O)c2c(=O)n1-c1ccccc1)CCCC3` [Example 1.22, 3-isopropyl-2-phenyl-6,7,8,9-tetrahydrobenzo[b][1,6]naphthyridine-1,10(2H,5H)-dione]: the AC50 turned out to be 7.2 µM and the Emax came out at 413%.
The matching figures for `CC(C)c1cc2[nH]c3c(c(=O)c2c(=O)n1-c1ccccc1)CCC3` [Example 1.23, 3-isopropyl-2-phenyl-5,6,7,8-tetrahydro-1H-cyclopenta[b][1,6]naphthyridine-1,9(2H)-dione]: 5.2 µM and 414%.
For `Cn1c2c(c(=O)c3c(=O)n(-c4ccccc4)c(C4CCC4)cc31)CCC2` [Example 1.24, 3-cyclobutyl-5-methyl-2-phenyl-5,6,7,8-tetrahydro-1H-cyclopenta[b][1,6]naphthyridine-1,9(2H)-dione], the activity was half-maximal at 18.4 µM (AC50) and the Emax was found to be 157%.
The matching figures for `Cc1c(C)n(C)c2cc(C3CCC3)n(-c3ccccc3)c(=O)c2c1=O` [Example 1.25, 7-cyclobutyl-1,2,3-trimethyl-6-phenyl-1,6-naphthyridine-4,5(1 H,6H)-dione]: 16.8 µM and 87%.
The corresponding values for `O=c1c2c([nH]c3cc(C4CCC4)n(-c4ccccc4)c(=O)c13)CCC2` [Example 1.26, 3-cyclobutyl-2-phenyl-5,6,7,8-tetrahydro-1H-cyclopenta[b][1,6]naphthyridine-1,9(2H)-dione] are 3.3 µM and 229%.
The matching figures for `Cc1[nH]c2cc(C3CCC3)n(-c3ccccc3)c(=O)c2c(=O)c1C` [Example 1.27, 7-cyclobutyl-2,3-dimethyl-6-phenyl-1,6-naphthyridine-4,5(1H,6H)-dione]: 3 µM and 206%.
Consider `Cn1c2c(c(=O)c3c(=O)n(-c4ccccc4)c(C4CCC4)cc31)CCCC2` [Example 1.28, 3-cyclobutyl-5-methyl-2-phenyl-6,7,8,9-tetrahydrobenzo[b][1,6]naphthyridine-1,10(2H,5H)-dione], for which the AC50 worked out at 12.8 µM and the Emax is 257%.
